Measured values as given in BindingDB's records for doi:10.7270/Q2X63KBQ (The Scripps Research Institute Molecular Screening Center, 2009).

Columns and labels:
[1] = molecular target: VIM-2 metallo β-lactamase (Pseudomonas aeruginosa, UniProt Q9K2N0); assay: concentration-dependent VIM-2 enzyme inhibition – biochemical, epi-absorbance readout, selective inhibitors, dose response (AID 1919)
Beta-lactamase = Beta-lactamase (Pseudomonas aeruginosa, UniProt Q932Y6); assay: as above
Sequence of Beta-lactamase (Q932Y6 whole entry): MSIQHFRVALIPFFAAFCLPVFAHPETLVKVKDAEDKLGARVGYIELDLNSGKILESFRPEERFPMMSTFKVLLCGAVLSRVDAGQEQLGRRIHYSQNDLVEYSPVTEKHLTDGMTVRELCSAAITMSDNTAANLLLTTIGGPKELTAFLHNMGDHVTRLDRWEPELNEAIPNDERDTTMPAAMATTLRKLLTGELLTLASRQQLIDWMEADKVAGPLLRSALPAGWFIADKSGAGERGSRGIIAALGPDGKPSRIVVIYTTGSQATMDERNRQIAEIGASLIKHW

SMILES | IC50 [1] [µM] | IC50 (Beta-lactamase) [µM]
O=C1C(=O)N(Cc2cccnc2)C(c2ccccn2)C1C(=O)c1ccc(F)cc1 (stereo not drawn) [(4Z)-4-[(4-fluorophenyl)-hydroxy-methylene]-5-(2-pyridyl)-1-(3-pyridylmethyl)pyrrolidine-2,3-quinone] | 2.42 | –
O=C1C(=O)N(Cc2cccnc2)C(c2ccccn2)C1C(=O)c1cccs1 (stereo not drawn) [3-hydroxy-5-(2-pyridinyl)-1-(3-pyridinylmethyl)-4-(2-thienylcarbonyl)-1,5-dihydro-2H-pyrrol-2-one] | 13.2 | –
O=C1C(=O)N(Cc2cccnc2)C(c2ccccn2)C1C(=O)c1ccccc1 (stereo not drawn) [(4Z)-4-[hydroxy(phenyl)methylene]-5-(2-pyridyl)-1-(3-pyridylmethyl)pyrrolidine-2,3-quinone] | 5 | –
COc1ccc(C(=O)C2C(=O)C(=O)N(Cc3ccco3)C2c2cc(OC)ccc2OC)cc1 (stereo not drawn) [(4E)-5-(2,5-dimethoxyphenyl)-1-(2-furanylmethyl)-4-[hydroxy-(4-methoxyphenyl)methylidene]pyrrolidine-2,3-dione] | 12.8 | –
COc1ccc(OC)c(C=NNC(=O)Cc2c(C)[nH][nH]c2=O)c1 [SMR000147372] | 6.1 | –
COc1ccc(OC)c(C2C(C(=O)c3ccco3)C(=O)C(=O)N2Cc2cccnc2)c1 (stereo not drawn) [2-(2,5-dimethoxyphenyl)-3-(furan-2-carbonyl)-4-hydroxy-1-(pyridin-3-ylmethyl)-2H-pyrrol-5-one] | 1.94 | –
COc1cc(OC)c(OC)cc1C=NNC(=O)Cc1c(C)[nH][nH]c1=O [MLS000555854] | 4.22 | –
Cn1c(-c2sccc2OCc2ccc(Cl)cc2Cl)n[nH]c1=S | – | 6.63
